Data taken from patent US20210284639A1, “TYROSINE AMIDE DERIVATIVES AS RHO- KINASE INHIBITORS” (CHIESI FARMACEUTICI S.p.A., priority 2018, published 2021).

Legend:
ROCK 2 (Rho kinase 2) = ROCK 2 (Rho kinase 2) (Homo sapiens, UniProt O75116); assay: In vitro inhibitory activity assay (ADP-Glo), Rho kinase 2; type: biochemical; settings: Ki by Cheng-Prusoff from IC50; 10 μM ATP, 25° C.
Method: (§1) In Vitro Inhibitory Activity Assay Description
(§2) The effectiveness of compounds of the present invention to inhibit Rho kinase activity can be determined in a 10 μl assay containing 40 mM Tris pH7.5, 20 mM MgCl2 0.1 mg/ml BSA, 50 μM DTT and 2.5 μM peptide substrate (Myelin Basic Protein) using an ADP-Glo kit (Promega). Compounds were dissolved in DMSO such that the final concentration of DMSO was 1% in the assay. All reactions/incubations are performed at 25° C. Compound (2 μl) and either Rho kinase 1 or 2 (4 μl) were mixed and incubated for 30 mins. Reactions were initiated by addition of ATP (4 μl) such that the final concentration of ATP in the assay was 10 μM. After a 1 hour incubation 10 μl of ADP-Glo Reagent was added and after a further 45 minute incubation 20 μl of Kinase Detection Buffer was added and the mixture incubated for a further 30 minutes. The luminescent signal was measured on a luminometer. […] Compounds were tested in dose-response format and the inhibition of kinase activity was calculated at each concentration of compound. To determine the IC50 (concentration of compound required to inhibit 50% of the enzyme activity) data were fit to a plot of % inhibition vs Log10 compound concentration using a sigmoidal fit with a variable slope and fixing the maximum to 100% and the minimum to 0%. To determine the Ki values the Cheng-Prusoff equation was utilized (Ki=IC50/(1+[S]/Km).

ROCK 1 (Rho kinase 1) = ROCK 1 (Rho kinase 1) (Homo sapiens, UniProt Q13464); assay: In vitro inhibitory activity assay (ADP-Glo), Rho kinase 1; type: biochemical; settings: Ki by Cheng-Prusoff from IC50; 10 μM ATP, 25° C.
Method: as §1, §2

Chain of ROCK 2 (Rho kinase 2) (O75116 whole entry): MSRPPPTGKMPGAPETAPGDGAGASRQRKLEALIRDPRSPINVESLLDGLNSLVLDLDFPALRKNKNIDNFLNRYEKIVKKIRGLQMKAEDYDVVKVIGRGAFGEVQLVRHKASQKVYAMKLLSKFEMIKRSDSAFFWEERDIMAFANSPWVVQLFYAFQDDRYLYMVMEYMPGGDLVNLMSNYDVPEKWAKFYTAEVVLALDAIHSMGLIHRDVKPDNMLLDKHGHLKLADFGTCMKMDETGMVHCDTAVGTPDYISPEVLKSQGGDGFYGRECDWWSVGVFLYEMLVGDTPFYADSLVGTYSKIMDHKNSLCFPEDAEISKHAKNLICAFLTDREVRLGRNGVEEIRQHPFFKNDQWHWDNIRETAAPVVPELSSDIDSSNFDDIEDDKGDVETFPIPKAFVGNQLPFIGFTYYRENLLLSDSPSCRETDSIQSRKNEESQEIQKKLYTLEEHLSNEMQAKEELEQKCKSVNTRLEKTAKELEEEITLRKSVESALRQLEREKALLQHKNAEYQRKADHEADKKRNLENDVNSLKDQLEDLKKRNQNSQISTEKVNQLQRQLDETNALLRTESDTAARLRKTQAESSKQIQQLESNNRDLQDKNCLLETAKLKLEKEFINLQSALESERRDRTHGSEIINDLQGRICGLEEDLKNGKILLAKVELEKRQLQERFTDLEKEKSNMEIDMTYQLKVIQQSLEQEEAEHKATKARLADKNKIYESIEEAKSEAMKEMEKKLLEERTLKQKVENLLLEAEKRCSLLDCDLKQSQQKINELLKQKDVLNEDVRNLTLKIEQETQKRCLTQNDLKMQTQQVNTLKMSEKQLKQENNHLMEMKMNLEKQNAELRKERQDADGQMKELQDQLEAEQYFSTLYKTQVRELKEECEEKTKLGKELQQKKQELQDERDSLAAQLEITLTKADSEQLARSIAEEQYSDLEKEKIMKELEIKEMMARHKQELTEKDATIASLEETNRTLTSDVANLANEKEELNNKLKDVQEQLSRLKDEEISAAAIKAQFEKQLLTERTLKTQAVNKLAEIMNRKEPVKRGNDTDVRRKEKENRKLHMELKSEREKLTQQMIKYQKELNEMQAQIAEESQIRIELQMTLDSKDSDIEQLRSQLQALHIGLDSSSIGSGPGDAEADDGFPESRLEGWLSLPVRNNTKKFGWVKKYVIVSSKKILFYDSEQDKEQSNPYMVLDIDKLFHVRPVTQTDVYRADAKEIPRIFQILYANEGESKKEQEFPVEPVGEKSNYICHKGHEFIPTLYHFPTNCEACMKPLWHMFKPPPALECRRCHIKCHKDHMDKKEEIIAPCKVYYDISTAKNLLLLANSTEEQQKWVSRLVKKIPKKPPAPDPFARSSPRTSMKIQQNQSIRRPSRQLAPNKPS
Chain of ROCK 1 (Rho kinase 1) (Q13464 whole entry): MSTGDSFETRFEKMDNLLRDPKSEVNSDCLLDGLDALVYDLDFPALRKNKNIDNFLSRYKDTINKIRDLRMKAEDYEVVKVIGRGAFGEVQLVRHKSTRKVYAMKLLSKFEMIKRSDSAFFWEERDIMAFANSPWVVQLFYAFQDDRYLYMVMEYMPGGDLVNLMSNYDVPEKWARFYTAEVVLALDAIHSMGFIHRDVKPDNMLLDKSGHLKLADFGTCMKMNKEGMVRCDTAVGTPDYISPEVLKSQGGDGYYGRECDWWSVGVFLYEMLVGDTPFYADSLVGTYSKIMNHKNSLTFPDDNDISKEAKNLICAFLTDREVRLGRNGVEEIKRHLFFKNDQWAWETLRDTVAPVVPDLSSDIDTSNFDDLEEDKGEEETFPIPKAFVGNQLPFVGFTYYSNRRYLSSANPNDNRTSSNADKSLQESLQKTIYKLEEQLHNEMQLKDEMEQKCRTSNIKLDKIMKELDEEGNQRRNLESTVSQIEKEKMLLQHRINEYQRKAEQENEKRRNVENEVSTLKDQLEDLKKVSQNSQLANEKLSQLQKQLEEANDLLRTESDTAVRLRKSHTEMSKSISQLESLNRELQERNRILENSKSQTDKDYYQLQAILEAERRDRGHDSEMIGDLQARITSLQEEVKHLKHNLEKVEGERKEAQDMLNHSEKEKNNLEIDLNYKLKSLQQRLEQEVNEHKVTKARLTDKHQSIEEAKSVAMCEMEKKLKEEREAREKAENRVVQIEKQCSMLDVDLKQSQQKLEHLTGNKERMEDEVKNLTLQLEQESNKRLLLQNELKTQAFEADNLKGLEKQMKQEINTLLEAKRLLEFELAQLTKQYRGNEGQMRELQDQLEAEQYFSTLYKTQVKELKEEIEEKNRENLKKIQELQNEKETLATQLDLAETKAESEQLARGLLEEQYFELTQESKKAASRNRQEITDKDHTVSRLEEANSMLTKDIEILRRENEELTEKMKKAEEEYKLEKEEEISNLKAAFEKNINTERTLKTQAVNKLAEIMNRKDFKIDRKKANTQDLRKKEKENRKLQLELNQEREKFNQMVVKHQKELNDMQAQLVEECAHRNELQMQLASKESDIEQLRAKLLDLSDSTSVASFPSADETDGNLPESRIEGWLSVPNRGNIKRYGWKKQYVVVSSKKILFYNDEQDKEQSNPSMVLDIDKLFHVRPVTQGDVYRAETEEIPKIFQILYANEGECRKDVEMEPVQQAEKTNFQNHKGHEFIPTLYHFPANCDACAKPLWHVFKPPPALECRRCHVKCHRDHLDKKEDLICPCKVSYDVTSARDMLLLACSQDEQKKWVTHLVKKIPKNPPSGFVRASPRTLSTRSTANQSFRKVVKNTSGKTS

Ki (ROCK 2 (Rho kinase 2)) [nM] | Ki (ROCK 1 (Rho kinase 1)) [nM] | SMILES
< 3 | < 3 | Cc1c[nH]c2nccc(Oc3ccc(C[C@H](N)C(=O)NC4CCN(C)CC4(C)C)cc3F)c12 (single isomer, unassigned) [Example 8a]
< 3 | < 3 | Cc1c[nH]c2nccc(Oc3ccc(C[C@H](N)C(=O)NC4CCN(C)CC4(C)C)cc3F)c12 (single isomer, unassigned) [Example 8b]
3 to 30 | 3 to 30 | Cc1c[nH]c2nccc(Oc3ccc(C[C@H](N)C(=O)NC4CCCN(C)C4)cc3F)c12 (single isomer, unassigned) [Example 17]
3 to 30 | 3 to 30 | Cc1c[nH]c2nccc(Oc3ccc(C[C@H](N)C(=O)NC4CCCN(C)C4)cc3F)c12 (single isomer, unassigned) [Example 18]
< 3 | < 3 | Cc1c[nH]c2nccc(Oc3ccc(C[C@H](N)C(=O)NC4CCN(C5CCC5)CC4)cc3F)c12 [Example 1, (S)-2-Amino-N-(1-cyclobutylpiperidin-4-yl)-3-(3-fluoro-4-((3-methyl-1H-pyrrolo[2,3-b]pyridin-4-yl)oxy)phenyl)propanamide]
< 3 | < 3 | Cc1c[nH]c2nccc(Oc3ccc(C[C@H](N)C(=O)NC4CCN(C5CCOC5)CC4)cc3F)c12 (stereo partly drawn) [Example 2, (2S)-2-Amino-3-(3-fluoro-4-((3-methyl-1H-pyrrolo[2,3-b]pyridin-4-yl)oxy)phenyl)-N-(1-(tetrahydrofuran-3-yl)piperidin-4-yl)propanamide]
< 3 | < 3 | Cc1c[nH]c2nccc(Oc3ccc(C[C@H](N)C(=O)NC4CCN(C5COC5)CC4)cc3F)c12 [Example 3, (S)-2-Amino-3-(3-fluoro-4-((3-methyl-1H-pyrrolo[2,3-b]pyridin-4-yl)oxy)phenyl)-N-(1-(oxetan-3-yl)piperidin-4-yl)propanamide]
< 3 | < 3 | Cc1c[nH]c2nccc(Oc3ccc(C[C@H](N)C(=O)NC4(C)CCN(C)CC4)cc3F)c12 [Example 4, (S)-2-Amino-N-(1,4-dimethylpiperidin-4-yl)-3-(3-fluoro-4-((3-methyl-1H-pyrrolo[2,3-b]pyridin-4-yl)oxy)phenyl)propanamide]
< 3 | < 3 | Cc1c[nH]c2nccc(Oc3ccc(C[C@H](N)C(=O)NC4CCN(C5CC5)CC4)cc3F)c12 [Example 5, (S)-2-Amino-N-(1-cyclopropylpiperidin-4-yl)-3-(3-fluoro-4-((3-methyl-1H-pyrrolo[2,3-b]pyridin-4-yl)oxy)phenyl)propanamide]
< 3 | < 3 | Cc1c[nH]c2nccc(Oc3ccc(C[C@H](N)C(=O)NC4CCN(CC(C)C)CC4)cc3F)c12 [Example 6, (S)-2-Amino-3-(3-fluoro-4-((3-methyl-1H-pyrrolo[2,3-b]pyridin-4-yl)oxy)phenyl)-N-(1-isobutylpiperidin-4-yl)propanamide]
< 3 | < 3 | CCN1CCC(NC(=O)[C@@H](N)Cc2ccc(Oc3ccnc4[nH]cc(C)c34)c(F)c2)CC1 [Example 7, (S)-2-Amino-N-(1-ethylpiperidin-4-yl)-3-(3-fluoro-4-((3-methyl-1H-pyrrolo[2,3-b]pyridin-4-yl)oxy)phenyl)propanamide]
< 3 | < 3 | Cc1c[nH]c2nccc(Oc3ccc(C[C@H](N)C(=O)N4CCC(O)(CO)CC4)cc3F)c12 [Example 9, (S)-2-Amino-3-(3-fluoro-4-((3-methyl-1H-pyrrolo[2,3-b]pyridin-4-yl)oxy)phenyl)-1-(4-hydroxy-4-(hydroxymethyl)piperidin-1-yl)propan-1-one]
< 3 | < 3 | Cc1c[nH]c2nccc(Oc3ccc(C[C@H](N)C(=O)N[C@@H]4CCN(C)C4)cc3F)c12 [Example 10, (S)-2-Amino-3-(3-fluoro-4-((3-methyl-1H-pyrrolo[2,3-b]pyridin-4-yl)oxy)phenyl)-N-((R)-1-methylpyrrolidin-3-yl)propanamide]
< 3 | 3 to 30 | Cc1c[nH]c2nccc(Oc3ccc(C[C@H](N)C(=O)N4CCN(C)CC45CC5)cc3F)c12 [Example 11, (S)-2-Amino-3-(3-fluoro-4-((3-methyl-1H-pyrrolo[2,3-b]pyridin-4-yl)oxy)phenyl)-1-(7-methyl-4,7-diazaspiro[2.5]octan-4-yl)propan-1-one]
< 3 | < 3 | Cc1c[nH]c2nccc(Oc3ccc(C[C@H](N)C(=O)N4C[C@@H]5CN(C6CC6)C[C@@H]5C4)cc3F)c12 [Example 12, (S)-2-Amino-1-((3aR,6aS)-5-cyclopropylhexahydropyrrolo[3,4-c]pyrrol-2(1H)-yl)-3-(3-fluoro-4-((3-methyl-1H-pyrrolo[2,3-b]pyridin-4-yl)oxy)phenyl)propan-1-one]
< 3 | < 3 | Cc1c[nH]c2nccc(Oc3ccc(C[C@H](N)C(=O)N4C[C@@H]5C[C@H]4CN5C4CC4)cc3F)c12 [Example 13, (S)-2-Amino-1-((1S,4S)-5-cyclopropyl-2,5-diazabicyclo[2.2.1]heptan-2-yl)-3-(3-fluoro-4-((3-methyl-1H-pyrrolo[2,3-b]pyridin-4-yl)oxy)phenyl)propan-1-one]
< 3 | < 3 | COCCN1CCC(NC(=O)[C@@H](N)Cc2ccc(Oc3ccnc4[nH]cc(C)c34)c(F)c2)CC1 [Example 14, (S)-2-Amino-3-(3-fluoro-4-((3-methyl-1H-pyrrolo[2,3-b]pyridin-4-yl)oxy)phenyl)-N-(1-(2-methoxyethyl)piperidin-4-yl)propanamide]
< 3 | < 3 | Cc1c[nH]c2nccc(Oc3ccc(C[C@H](N)C(=O)NC4CCN(CCCF)CC4)cc3F)c12 [Example 15, (S)-2-Amino-3-(3-fluoro-4-((3-methyl-1H-pyrrolo[2,3-b]pyridin-4-yl)oxy)phenyl)-N-(1-(3-fluoropropyl)piperidin-4-yl)propanamide]
< 3 | < 3 | Cc1c[nH]c2nccc(Oc3ccc(C[C@H](N)C(=O)NC4CCN(CC5CC5)CC4)cc3F)c12 [Example 16, (S)-2-Amino-N-(1-(cyclopropylmethyl)piperidin-4-yl)-3-(3-fluoro-4-((3-methyl-1H-pyrrolo[2,3-b]pyridin-4-yl)oxy)phenyl)propanamide]
< 3 | < 3 | Cc1c[nH]c2nccc(Oc3ccc(C[C@H](N)C(=O)N4CCC(NC5CC5)CC4)cc3F)c12 [Example 19, (S)-2-Amino-1-(4-(cyclopropylamino)piperidin-1-yl)-3-(3-fluoro-4-((3-methyl-1H-pyrrolo[2,3-b]pyridin-4-yl)oxy)phenyl)propan-1-one]
< 3 | < 3 | Cc1c[nH]c2nccc(Oc3ccc(C[C@H](N)C(=O)NC4(CO)CCN(C5CC5)CC4)cc3F)c12 [Example 20, (S)-2-Amino-N-(1-cyclopropyl-4-(hydroxymethyl)piperidin-4-yl)-3-(3-fluoro-4-((3-methyl-1H-pyrrolo[2,3-b]pyridin-4-yl)oxy)phenyl)propanamide]
< 3 | < 3 | Cc1c[nH]c2nccc(Oc3ccc(C[C@H](N)C(=O)NC4(C(N)=O)CCN(C5CC5)CC4)cc3F)c12 [Example 21, (S)-4-(2-Amino-3-(3-fluoro-4-((3-methyl-1H-pyrrolo[2,3-b]pyridin-4-yl)oxy)phenyl)propanamido)-1-cyclopropylpiperidine-4-carboxamide]
< 3 | < 3 | Cc1c[nH]c2nccc(Oc3ccc(C[C@H](N)C(=O)N4CCc5ccncc5C4)cc3F)c12 [Example 22, (S)-2-Amino-1-(3,4-dihydro-2,7-naphthyridin-2(1H)-yl)-3-(3-fluoro-4-((3-methyl-1H-pyrrolo[2,3-b]pyridin-4-yl)oxy)phenyl)propan-1-one]
< 3 | < 3 | Cc1c[nH]c2nccc(Oc3ccc(C[C@H](N)C(=O)N4CCc5cncnc5C4)cc3F)c12 [Example 23, (S)-2-Amino-1-(5,8-dihydropyrido[3,4-d]pyrimidin-7(6H)-yl)-3-(3-fluoro-4-((3-methyl-1H-pyrrolo[2,3-b]pyridin-4-yl)oxy)phenyl)propan-1-one]
< 3 | < 3 | Cc1c[nH]c2nccc(Oc3ccc(C[C@H](N)C(=O)N4CCc5ncsc5C4)cc3F)c12 [Example 24, (S)-2-Amino-1-(6,7-dihydrothiazolo[5,4-c]pyridin-5(4H)-yl)-3-(3-fluoro-4-((3-methyl-1H-pyrrolo[2,3-b]pyridin-4-yl)oxy)phenyl)propan-1-one]
< 3 | < 3 | Cc1c[nH]c2nccc(Oc3ccc(C[C@H](N)C(=O)N4CCc5cnccc5C4)cc3F)c12 [Example 25, (S)-2-Amino-1-(3,4-dihydro-2,6-naphthyridin-2(1H)-yl)-3-(3-fluoro-4-((3-methyl-1H-pyrrolo[2,3-b]pyridin-4-yl)oxy)phenyl)propan-1-one]
< 3 | < 3 | Cc1c[nH]c2nccc(Oc3ccc(C[C@H](N)C(=O)N4CCc5ncccc5C4)cc3F)c12 [Example 26, (S)-2-amino-1-(7,8-dihydro-1,6-naphthyridin-6(5H)-yl)-3-(3-fluoro-4-((3-methyl-1H-pyrrolo[2,3-b]pyridin-4-yl)oxy)phenyl)propan-1-one]
